Results reported in patent US10253002B2, “Compounds and methods of treating infections” (Neoculi Pty Ltd., priority 2013, dated 2019).
≈ marks a conversion by molar mass, not a printed value. Where “and” joins values, the source holds several entries; their conditions need not be identical. Equal values may be shown once.

Legend:
Assay in all cases: Broth microdilution MIC, Example 7 (NCL812 and analogues)
MRSA = assay type: cell-based, Staphylococcus aureus
How it was run: (§1)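 Turbidity read visually and then at 600 nm defined the MIC (μg/ml), comparing drug-containing wells with a growth-control well lacking antimicrobial. Testing followed the CLSI broth microdilution method, in duplicate, using two strains per organism group.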

VRE = assay type: cell-based, Enterococcus spp.; conditions: for activity against VRE among analogues: MIC testing, two VRE strains
How it was run: as §1

Escherichia coli = assay type: cell-based; conditions: 24 hours
Pseudomonas aeruginosa = assay type: cell-based; conditions: 24 hours
[1] = MRSA 1, 24 hours, duplicate lines per compound
[2] = MRSA 2, 24 hours, duplicate lines per compound
[3] = VRE 1, 24 hours, duplicate lines per compound
[4] = VRE 2, 24 hours, duplicate lines per compound
[5] = E. coli, duplicate lines per compound
[6] = P. aeruginosa, duplicate lines per compound
[7] = isolate MRSA 1, 24 hours, 1st and 2nd replicate rows
[8] = isolate MRSA 2, 24 hours, 1st and 2nd replicate rows
[9] = isolate VRE 1, 24 hours, 1st and 2nd replicate rows
[10] = isolate VRE 2, 24 hours, 1st and 2nd replicate rows

MIC (μg/ml) at 24 hours, MRSA 1 (MRSA; [1]) [µg/mL] | MIC (μg/ml) at 24 hours, MRSA 2 (MRSA; [2]) [µg/mL] | MIC (μg/ml) at 24 hours, VRE 1 (VRE; [3]) [µg/mL] | MIC (μg/ml) at 24 hours, VRE 2 (VRE; [4]) [µg/mL] | MIC (μg/ml) at 24 hours, E. coli (Escherichia coli; [5]) [µg/mL] | MIC (μg/ml) at 24 hours, P. aeruginosa (Pseudomonas aeruginosa; [6]) [µg/mL] | MIC (μg/ml) at 24 hours, MRSA 1 (MRSA; [7]) [µg/mL] | MIC (μg/ml) at 24 hours, MRSA 2 (MRSA; [8]) [µg/mL] | MIC (μg/ml) at 24 hours, VRE 1 (VRE; [9]) [µg/mL] | MIC (μg/ml) at 24 hours, VRE 2 (VRE; [10]) [µg/mL] | MIC (μg/ml) at 24 hours, E. coli (Escherichia coli; 1st and 2nd replicate rows) [µg/mL] | MIC (μg/ml) at 24 hours, P. aeruginosa (Pseudomonas aeruginosa; 1st and 2nd replicate rows) [µg/mL] | Compound | further results
>128 | >128 | 4 | >128 | >128 | >128 | – | – | – | – | – | – | Cl.N=C(NN=Cc1cccc(Br)c1)NN=Cc1cccc(Br)c1 [NCL 131] | –
– | – | – | – | – | – | – | – | – | – | – | – | CC(C)(C)c1ccc(/C=N/Nc2cc(N/N=C/c3ccc(C(C)(C)C)cc3)nc(N)n2)cc1 [NCL200] | MIC (μg/ml) at 24 hours, MRSA 1 (MRSA; MRSA 1, 24 hours): >128 µg/mL; MIC (μg/ml) at 24 hours, MRSA 2 (MRSA; MRSA 2, 24 hours): >128 µg/mL; MIC (μg/ml) at 24 hours, VRE 1 (VRE; VRE 1, 24 hours): >128 µg/mL; MIC (μg/ml) at 24 hours, VRE 2 (VRE; VRE 2, 24 hours): >128 µg/mL; MIC (μg/ml) at 24 hours, E. coli (Escherichia coli; E. coli): >128 µg/mL; MIC (μg/ml) at 24 hours, P. aeruginosa (Pseudomonas aeruginosa; P. aeruginosa): >128 µg/mL
64 | 128 | 16 | 128 | >128 | >128 | – | – | – | – | – | – | Cl.N=C(NN=C(c1ccc(Cl)cc1O)C1CCCC1)NN=C(c1ccc(Cl)cc1O)C1CCCC1 [NCL 159] | –
>128 | >128 | >128 | >128 | >128 | >128 | – | – | – | – | – | – | Cl.N=C(NNCc1ccccc1)NNCc1ccccc1 [NCL 142] | –
– | – | – | – | – | – | >128 | >128 | >128 | >128 | >128 | >128 | COc1cccc(/C=N/NC(N)=O)c1 [NCL059] | –
– | – | – | – | – | – | >128 | >128 | >128 | >128 | >128 | >128 | Cl.N=C(NN=Cc1ccccc1F)NN=Cc1ccccc1F [NCL022] | –
– | – | – | – | – | – | – | – | – | – | – | – | Nc1nc(N/N=C/c2ccc(Br)cc2)nc(N/N=C/c2ccc(Br)cc2)n1 [NCL212] | MIC (μg/ml) at 24 hours, MRSA 1 (MRSA; MRSA 1, 24 hours): >128 µg/mL; MIC (μg/ml) at 24 hours, MRSA 2 (MRSA; MRSA 2, 24 hours): >128 µg/mL and 128 µg/mL; activity against VRE among analogues (VRE): greatest activity; MIC (μg/ml) at 24 hours, VRE 1 (VRE; VRE 1, 24 hours): 32 µg/mL (≈ 65.3 µM); MIC (μg/ml) at 24 hours, VRE 2 (VRE; VRE 2, 24 hours): 16 µg/mL (≈ 32.6 µM); VRE (VRE; bioassay ranking, VRE): 24 µg/mL; MIC (μg/ml) at 24 hours, E. coli (Escherichia coli; E. coli): >128 µg/mL; MIC (μg/ml) at 24 hours, P. aeruginosa (Pseudomonas aeruginosa; P. aeruginosa): >128 µg/mL
64 | 128 | 64 | 64 | >128 | >128 | – | – | – | – | – | – | COc1cc(/C=N/NC(=N)N/N=C/c2ccc(O)c(OC)c2)ccc1O.Cl [NCL 117] | –
>128 | >128 | >128 | >128 | >128 | >128 | – | – | – | – | – | – | Cl.N=C(N/N=C/c1cccc([N+](=O)[O-])c1)N/N=C/c1cccc([N+](=O)[O-])c1 [NCL109] | –
32 | 64 | 64 | 64 | >128 | >128 | – | – | – | – | – | – | Cl.N=C(NN)NN=Cc1ccc(Cl)cc1 [NCL072] | activity against MRSA among analogues (MRSA; MIC testing, two MRSA strains): greatest activity; activity against VRE among analogues (VRE): greatest activity
– | – | – | – | – | – | >128 | >128 | >128 | >128 | >128 | >128 | Cl.N#Cc1ccc(C=NNC(=N)NN=Cc2ccc(C#N)cc2)cc1 [NCL024] | –
– | – | – | – | – | – | >128 | >128 | >128 | >128 | >128 | >128 | O=C(N/N=C/c1ccccc1Cl)N/N=C/c1ccccc1Cl [NCL002] | –
– | – | – | – | – | – | >128 | >128 | >128 | >128 | >128 | >128 | NC(=O)N/N=C/c1ccccc1Cl [NCL047] | –
>128 | >128 | >128 | >128 | >128 | >128 | – | – | – | – | – | – | Cl.N#Cc1ccc(/C=N/NC(=N)N/N=C/c2ccc(Cl)cc2)cc1 [NCL087] | –
– | – | – | – | – | – | >128 | >128 | >128 | >128 | >128 | >128 | Cl.N#Cc1ccc(/C=N/NC(=N)N)cc1 [NCL031] | –
>128 | >128 | >128 | >128 | >128 | >128 | – | – | – | – | – | – | Cl.N=C(NN=Cc1ccccc1[N+](=O)[O-])NN=Cc1ccccc1[N+](=O)[O-] [NCL102] | –
>128 | >128 | >128 | >128 | >128 | >128 | – | – | – | – | – | – | Cl.N=C(NN=Cc1ccc(Br)o1)NN=Cc1ccc(Br)o1 [NCL 144] | –
>128 | 32 | >128 | >128 | >128 | >128 | – | – | – | – | – | – | Cl.N=C(NN=CC(=Cc1ccccc1)c1ccccc1)NN=CC(=Cc1ccccc1)c1ccccc1 [NCL 138] | –
32 | 32 | 64 | 32 | >128 | >128 | – | – | – | – | – | – | CC(O)Nc1cc(Cl)ccc1C=NNC(=N)NN=Cc1ccc(Cl)cc1NC(C)O.Cl (stereo not shown) [NCL 168] | –
8 | 8 | 16 | 8 | >128 | >128 | – | – | – | – | – | – | C/C(=N\NC(=N)N/N=C(\C)c1ccc(Br)cc1)c1ccc(Br)cc1.Cl [NCL 155] | –
– | – | – | – | – | – | >128 | >128 | >128 | >128 | >128 | >128 | COc1ccc(/C=N/NC(N)=O)cc1 [NCL058] | –
